Where “and” joins values, the source holds several entries; their conditions need not be identical. Equal entries are not always repeated. Where two headings read alike, the source gives them in different places. Marks after values point to notes of the source that are not given here. Each block holds one compound with its values, some of them ahead of it.
Experiments:
[1] = Microsomal stability in pooled human liver microsomes
Experimental: (§1) The reaction was started by addition of 200 μl of NADPH to the remaining mixture of ramelteon with microsomes, and 100-μl aliquots were taken at 1, 2, 5, 10, 15, 20, and 30 minutes after the reaction start; mixed with an equal volume of ice-cold methanol containing the internal standard; incubated on ice for at least 20 minutes; and centrifuged for 15 minutes at 16,000 rcf and +4°C on Centrifuge 5415 R (Eppendorf, Hamburg, Germany). Control incubations were carried out without the cofactor or microsomes. The concentration of ramelteon in the supernatant was measured by high-performance liquid chromatography–tandem mass spectrometry (MS/MS). Chromatographic separation was performed on a Prodigy Phenyl-3 column (5 μm, 50 × 2.0 mm; Phenomenex) using an injection volume of 10 μl and a run time of 7 minutes. Mobile phase consisted of 0.1% solutions of formic acid in water (solvent A) and acetonitrile (solvent B). For elution, a linear gradient from 20% to 60% of solvent B in 4 minutes was used, followed by 3-minute equilibration at 20% B. The multiple reaction monitoring parameters for ramelteon and tacrine were 260.28, 199.2 (precursor ion) and 204.21, 171.11 (product ion), respectively. The concentrations of ramelteon were calculated from the calibration curve.

[2] = Microsomal stability in mouse liver microsomes (WT, Cyp1a KO, hCYP1A1/1A2)
Experimental: as §1

[3] = cited from earlier work
[4] = in vivo; settings: whole blood, po, 5 mg/kg
Experimental: (§2) A separate experimental group consisted of mice with conditionally deleted hepatic P450 oxidoreductase ([Henderson et al., 2003]) [hepatic reductase null (HRN) mice]. Whole blood samples from WT and hCYP1A1/1A2 mice were collected at 12, 24, and 40 minutes and 1, 2, 3, 4, 6, and 8 hours after the administration. Whole blood samples from HRN and Cyp1a1/1a2 KO mice were collected at 12, 24, and 40 minutes and 1, 3, 6, 8, 12, and 24 hours postadministration. The collected whole blood samples (10 μl) were mixed with an equal volume of heparin solution in water (15 U/ml), frozen in liquid nitrogen, and stored at −70°C. […] The supernatant was collected, and the centrifugation step was repeated.
(§3) Pharmacokinetic parameters were calculated using Phoenix WinNonlin version 6.4 (Certara, St. Louis, MO).

[5] = test system: CYP1A2; set-up: method as in Culm-Merdek et al., 2005; settings: healthy subjects; interaction with fluvoxamine; ref Culm-Merdek et al., 2005; cited from earlier work
[6] = Caffeine systemic clearance from published mouse studies; assay type: in vivo
[7] = for CYP1A2 Contribution: 5 mg/kg PO, This study; for AUCinf(obs) (% mean of C57BL/6J ± %S.D.) / CL/F(obs) (% mean of C57BL/6J ± %S.D.) / Cmax (% mean of C57BL/6J ± %S.D.) / V/F(obs) (% mean of C57BL/6J ± %S.D.) / V/F(obs): 5 mg/kg oral; for V/F(obs): mean ± S.D., n = 4
Experimental: as §2, §3

[8] = HRN (hepatic reductase null), mouse

in vitro clearance relative to WT [1]: ~70%
in vitro clearance relative to WT ([2]; Cyp1a KO mouse liver microsomes): ~83%
contribution of mouse Cyp1a2 to clearance ([2]; WT liver microsomes): 17%
fraction metabolized by Cyp1a2 ([2]; WT mice liver microsomes, eqs. 15 and 16): ~0.17
fraction metabolized by CYP1A2 ([2]; hCYP1A1/1A2 mice liver microsomes, eqs. 15 and 16): 0.56
in vitro clearance relative to WT ([2]; hCYP1A1/1A2 mouse liver microsomes): ~190%
contribution of CYP1A2 to clearance ([2]; liver microsomes of hCYP1A1/1A2 mice): 56%
SMILES: CCC(=O)NCC[C@@H]1CCc2ccc3c(c21)CCO3 [ramelteon]

SMILES: Cn1c(=O)c2c(ncn2C)n(C)c1=O [caffeine]
Clearance ([3]; C57BL/6J mice, 5 mg/kg PO, calculated from the mean pharmacokinetic profile in Fig. 2 of the publication, ref Li et al., 2017): 472^a ml/(h*kg)
Clearance ([3]; C57BL/6J mice, 5 mg/kg PO, ref Scheer et al., 2014): 726 mL/h/kg
Clearance ([3]; C57BL/6N mice, 2 mg/kg i.p., ref Buters et al., 1996): 2268 mL/h/kg
Clearance ([3]; CD-1 mice, 20 mg/kg i.p., ref Kaplan et al., 1990): 640 mL/h/kg
Clearance ([3]; CD-1 mice, 40 mg/kg i.p., ref Kaplan et al., 1990): 380 mL/h/kg
Clearance ([3]; CD-COBS mice, 1 mg/kg i.v., ref Walton et al., 2001): 732 mL/h/kg
Clearance ([3]; Swiss mice, 20 mg/kg PO, calculated by dividing dose by AUCinf, ref Samojlik et al., 2016): 311^b ml/(h*kg)
Clearance ([3]; Swiss mice, 20 mg/kg i.p., calculated by dividing dose by AUCinf, ref Samojlik et al., 2016): 398^b ml/(h*kg)
AUC(0-inf) ([4]; C57BL/6J, mouse): 5700 ± 1260 ng·h/mL
CL/F ([4]; C57BL/6J, mouse): 15.1 mL/min/kg
Cmax ([4]; C57BL/6J, mouse): 2380 ± 628 ng/mL
half-life ([4]; C57BL/6J, mouse): 0.94 ± 0.25 h
AUC(0-inf) ([4]; Cyp1a KO, mouse): 17700 ± 2070 ng·h/mL
CL/F ([4]; Cyp1a KO, mouse): 4.77 mL/min/kg
Cmax ([4]; Cyp1a KO, mouse): 3990 ± 472 ng/mL
half-life ([4]; Cyp1a KO, mouse): 2.39 ± 0.2 h
AUC(0-inf) [4, 8]: 57300 ng·h/mL
CL/F [4, 8]: 1.45 mL/min/kg
Cmax [4, 8]: 3740 ± 794 ng/mL
half-life [4, 8]: 8.4 ± 0.8 h
AUC(0-inf) ([4]; hCYP1A1/1A2, mouse): 8400 ± 1800 ng·h/mL
CL/F ([4]; hCYP1A1/1A2, mouse): 10.2 mL/min/kg
Cmax ([4]; hCYP1A1/1A2, mouse): 3080 ± 194 ng/mL
half-life ([4]; hCYP1A1/1A2, mouse): 1.3 ± 0.33 h
contribution of CYP1A2 to caffeine metabolism [5]: 93%
CYP1A2 Contribution ([6]; C57BL/6J mice, 5 mg/kg PO, against Cyp1a KO clearance, clearance from ref Li et al., 2017): 39%
CYP1A2 Contribution ([6]; C57BL/6J mice, 5 mg/kg PO, against Cyp1a KO clearance, clearance from ref Scheer et al., 2014): 61%
CYP1A2 Contribution ([6]; C57BL/6N mice, 2 mg/kg i.p., calculated against CYP1A2^−/− clearance, clearance from ref Buters et al., 1996): 88%
CYP1A2 Contribution ([6]; CD-1 mice, 20 mg/kg i.p., against Cyp1a KO clearance, clearance from ref Kaplan et al., 1990): 55%
CYP1A2 Contribution ([6]; CD-1 mice, 40 mg/kg i.p., against Cyp1a KO clearance, clearance from ref Kaplan et al., 1990): 25%
CYP1A2 Contribution ([6]; CD-COBS mice, 1 mg/kg i.v., against Cyp1a KO clearance, clearance from ref Walton et al., 2001): 61%
CYP1A2 Contribution ([6]; CYP1A2^−/− mice, 2 mg/kg i.p., clearance from ref Buters et al., 1996): 0%
CYP1A2 Contribution ([6]; Swiss mice, 20 mg/kg PO, against Cyp1a KO clearance, clearance from ref Samojlik et al., 2016): 8%
CYP1A2 Contribution ([6]; Swiss mice, 20 mg/kg i.p., against Cyp1a KO clearance, clearance from ref Samojlik et al., 2016): 28%
CYP1A2 Contribution ([7]; C57BL/6J (WT) mice, against Cyp1a KO clearance): 68%
AUCinf(obs) (% mean of C57BL/6J ± %S.D.) ([7]; C57BL/6J mice): 100 ± 22%
CL/F(obs) (% mean of C57BL/6J ± %S.D.) ([7]; C57BL/6J mice): 100 ± 19%
Cmax (% mean of C57BL/6J ± %S.D.) ([7]; C57BL/6J mice): 100 ± 26%
V/F(obs) (% mean of C57BL/6J ± %S.D.) ([7]; C57BL/6J mice): 100 ± 39%
V/F(obs) ([7]; C57BL/6J mice): 1.253 ± 0.494 L/kg
increase of AUC compared with WT mice ([7]; Cyp1a KO mice): ~3.1 fold
increase of elimination half-life compared with WT ([7]; Cyp1a KO mice): ~2.5 fold
CYP1A2 Contribution ([7]; Cyp1a KO mice): 0%
AUCinf(obs) (% mean of C57BL/6J ± %S.D.) ([7]; Cyp1a KO mice): 309 ± 36%
Cmax (% mean of C57BL/6J ± %S.D.) ([7]; Cyp1a KO mice): 167 ± 20%
V/F(obs) (% mean of C57BL/6J ± %S.D.) ([7]; Cyp1a KO mice): 79 ± 15%
CL/F(obs) (% mean of C57BL/6J ± %S.D.) ([7]; Cyp1a KO mice, 5 mg/kg): 32% and 32 ± 4%
V/F(obs) ([7]; Cyp1a KO mice): 0.992 ± 0.188 L/kg
increase of AUC compared with WT mice ([7]; HRN mice): ~10 fold
increase of elimination half-life compared with WT ([7]; HRN mice): ~8.9 fold
AUCinf(obs) (% mean of C57BL/6J ± %S.D.) ([7]; HRN mice): 1004 ± 45%
Cmax (% mean of C57BL/6J ± %S.D.) ([7]; HRN mice): 157 ± 33%
V/F(obs) (% mean of C57BL/6J ± %S.D.) ([7]; HRN mice): 84 ± 7%
CL/F(obs) (% mean of C57BL/6J ± %S.D.) ([7]; HRN mice, 5 mg/kg): 9.7 ± 0.42%
V/F(obs) ([7]; HRN mice): 1.057 ± 0.082 L/kg
increase of AUC compared with WT mice ([7]; hCYP1A1/1A2 mice): ~1.5 fold
CYP1A2 Contribution ([7]; hCYP1A1/1A2 mice, against Cyp1a KO clearance): 53%
AUCinf(obs) (% mean of C57BL/6J ± %S.D.) ([7]; hCYP1A1/1A2 mice): 147 ± 32%
Cmax (% mean of C57BL/6J ± %S.D.) ([7]; hCYP1A1/1A2 mice): 129 ± 8%
V/F(obs) (% mean of C57BL/6J ± %S.D.) ([7]; hCYP1A1/1A2 mice): 89 ± 4%
CL/F(obs) (% mean of C57BL/6J ± %S.D.) ([7]; hCYP1A1/1A2 mice, 5 mg/kg): 68% and 68 ± 13%
V/F(obs) ([7]; hCYP1A1/1A2 mice): 1.111 ± 0.055 L/kg
increase of elimination half-life compared with WT ([7]; hCYP1A1/1A2 mice, not statistically significant): ~1.4 fold
